Assay results: publication PMC11206207 (Chemical Science, 2024)
Numbered stars: 1 amine (or outer) side, 2 acyl side, 3 side chain; on linkers, the order of the positions; unused ones are H or OH. Bridge positions count the residues as written; N and C are the ends. Ends that are not written are not given here. Peptide text beside a SMILES is read from it. * marks the point of attachment. FITC = O=C1OC2(c3ccc(O)cc3Oc3cc(O)ccc32)c2ccc(NC(=S)*)cc21; X1 = O=C(C[*:2])Nc1cc(NC(=O)C[*:3])cc(C(=O)[*:1])c1; AEEA = NCCOCCOCC(=O)O

Key:
AGS cells = assay: Cell viability assay; format: cell-based; conditions: 24 hours
TEAD4 = TEAD4 (Homo sapiens, UniProt Q15561); assay: Fluorescence polarization binding assay of FAM/FITC-labelled peptides to TEAD4
TEAD4, sequence (Q15561 210-434): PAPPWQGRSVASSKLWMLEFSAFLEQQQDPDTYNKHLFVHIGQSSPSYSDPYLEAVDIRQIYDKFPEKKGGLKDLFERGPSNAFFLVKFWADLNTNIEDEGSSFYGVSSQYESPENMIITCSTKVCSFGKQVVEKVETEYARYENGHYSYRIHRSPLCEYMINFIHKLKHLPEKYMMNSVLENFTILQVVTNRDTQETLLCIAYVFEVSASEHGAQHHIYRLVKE

## PKKKRKVDPKKKRKVDPKKKRKVNGLPKTGLTSWVSCHFLRSLCGGSG-NH2 (linker 28-37-44 via X1; C-terminus assumed) [16-NLS]
AGS cells; read-out: cellular inhibitory activity EC50, AGS cells
  EC50: 8.3 µM

## CC(=O)N[C@@H](CC(C)C)C(=O)N1CCC[C@H]1C(=O)N[C@H]1CCCCNC(=O)c2cc3cc(c2)NC(=O)CSC[C@H](NC(=O)[C@H](CO)NC(=O)[C@H](C(C)C)NC(=O)[C@H](Cc2c[nH]c4ccccc24)NC(=O)[C@H](CO)NC(=O)[C@H]([C@@H](C)O)NC(=O)[C@H](CC(C)C)NC(=O)CNC(=O)[C@H]([C@@H](C)O)NC1=O)C(=O)N[C@@H](Cc1c[nH]cn1)C(=O)N[C@@H](Cc1ccccc1)C(=O)N[C@@H](CC(C)C)C(=O)N[C@@H](CCCNC(=N)N)C(=O)N[C@@H](CO)C(=O)N[C@@H](CC(C)C)C(=O)N[C@H](C(=O)NCC(=O)NCC(=O)N[C@@H](CO)C(=O)NCC(N)=O)CSCC(=O)N3 [compound 16] (Ac-LPKTGLTSWVSCHFLRSLCGGSG-NH2; linker 3-12-19 via X1)
AGS cells; at 10 μM, in presence of PDPA nanocarrier
  inhibitory activity on AGS cells: little inhibitory inhibition

## CC(C)C[C@H](NC(=O)[C@H](CO)NC(=O)[C@H](Cc1ccccc1)NC(=O)[C@H](CC(=O)O)NC(=O)[C@H](Cc1c[nH]c2ccccc12)NC(=O)[C@H](Cc1ccccc1)NC(=O)[C@H](CO)NC(=O)[C@H](CCCCN)NC(=O)[C@@H]1CCCN1C(=O)[C@H](Cc1c[nH]c2ccccc12)NC(=O)[C@H](CCC(N)=O)NC(=O)CNC(=O)[C@@H](NC(=O)[C@H](CCCCN)NC(=O)[C@@H]1CCCN1C(=O)[C@H](CC(C)C)NC(=O)COCCOCCNC(=S)Nc1ccc2c(c1)C(=O)OC21c2ccc(O)cc2Oc2cc(O)ccc21)[C@@H](C)O)C(=O)NCC(=O)N[C@@H](CS)C(=O)NCC(=O)NCC(=O)N[C@@H](CO)C(=O)NCC(N)=O [linear version of 15] ({FITC-AEEA}-LPKTGQWPKSFWDFSLGCGGSG-NH2; N-terminus and C-terminus assumed)
TEAD4
  Kd: 6.3 µM
